We go through 3 compounds from US20260240878A1, “PTP1B/TC-PTP DUAL INHIBITORS AND PROTEIN DEGRADERS” (Purdue Research Foundation, priority 2023, published 2026).

Each structure is given as a SMILES string. *1 amine or outer side, *2 acyl side, *3 side chain or, on linkers, in order; H or OH if unused. Where a SMILES comes first, the peptide text is derived from it. [ ]: non-standard residue; d: D form. The star is where a group is joined. NHBn(4-(4-Me-thiazol-5-yl)) = Cc1ncsc1-c1ccc(CN*)cc1; F2Pmp = N[C@@H](Cc1ccc(C(F)(F)P(=O)(O)O)cc1)C(=O)O; Phenylacetyl(4-OH,3-OMe) = COc1cc(CC(=O)*)ccc1O; Benzoyl(3-Br,4-Me) = Cc1ccc(C(=O)*)cc1Br; Hyp = O=C(O)[C@@H]1C[C@@H](O)CN1; X3 = O=C(CCC1CCN([*:1])CC1)[*:2]; dHyp = O=C(O)[C@H]1C[C@H](O)CN1; dTle = CC(C)(C)[C@@H](N)C(=O)O; Tle = CC(C)(C)[C@H](N)C(=O)O; Ava = NCCCCC(=O)O

Test [1] has as its target T1, PTP1B (Homo sapiens, UniProt P18031).
T1 sequence (P18031 1-435): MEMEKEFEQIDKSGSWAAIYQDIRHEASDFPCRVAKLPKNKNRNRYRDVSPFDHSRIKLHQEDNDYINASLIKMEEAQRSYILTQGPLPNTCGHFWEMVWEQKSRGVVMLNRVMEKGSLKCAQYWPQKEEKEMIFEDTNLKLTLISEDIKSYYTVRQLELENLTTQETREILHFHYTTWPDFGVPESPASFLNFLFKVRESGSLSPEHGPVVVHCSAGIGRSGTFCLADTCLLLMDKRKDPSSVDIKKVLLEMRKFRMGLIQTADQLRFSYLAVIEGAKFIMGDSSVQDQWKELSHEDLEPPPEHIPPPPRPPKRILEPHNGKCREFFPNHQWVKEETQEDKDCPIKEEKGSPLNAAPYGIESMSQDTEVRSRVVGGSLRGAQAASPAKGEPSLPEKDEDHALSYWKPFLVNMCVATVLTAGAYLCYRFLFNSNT
Kind of test: PTP activity assay with pNPP substrate (IC50, Ki, mode of inhibition). Format: biochemical. The settings on record: for IC50: pNPP 2 mM, pH 7.0, 25° C., read-out: IC50, nM PTP1B. The method, then: (§1) PTP activity was assayed using p-nitrophenyl phosphate (pNPP) as a substrate in DMG buffer (50 mM DMG. pH 7.0, 1 mM EDTA, 150 mM NaCl, 2 mM DTT, 0.1 mg/mL BSA) at 25° C. The assays were performed in 96-well plates. Normally, to determine the IC50 values, the reaction was initiated by the addition of enzyme (for PTP1B and TCPTP, the final concentration was 0.4 nM, for other PTPs, the final concentration was 10 nM) to a reaction mixture (0.2 mL) containing 2 mM (Km for the substrate) pNPP with various concentrations of inhibitors (see FIG. 1). The reaction rate was measured using a SpectraMax Plus 384 Microplate Spectrophotometer (Molecular Devices). Data were fitted using SigmaPlot Enzyme Kinetics Module (Systat Software, Inc.). To determine the mode of inhibition, the reactions were initiated by the addition of enzyme (final concentration for TC-PTP and PTP1B was 0.4 nM) to the reaction mixtures (0.2 mL) containing various concentrations of pNPP with different concentrations of the inhibitor. Data were fitted using SigmaPlot Enzyme Kinetics Module (Systat Software. Inc.).

Test [2] concerns the target T2, TC-PTP (Homo sapiens, UniProt P17706).
T2 sequence (P17706 1-415): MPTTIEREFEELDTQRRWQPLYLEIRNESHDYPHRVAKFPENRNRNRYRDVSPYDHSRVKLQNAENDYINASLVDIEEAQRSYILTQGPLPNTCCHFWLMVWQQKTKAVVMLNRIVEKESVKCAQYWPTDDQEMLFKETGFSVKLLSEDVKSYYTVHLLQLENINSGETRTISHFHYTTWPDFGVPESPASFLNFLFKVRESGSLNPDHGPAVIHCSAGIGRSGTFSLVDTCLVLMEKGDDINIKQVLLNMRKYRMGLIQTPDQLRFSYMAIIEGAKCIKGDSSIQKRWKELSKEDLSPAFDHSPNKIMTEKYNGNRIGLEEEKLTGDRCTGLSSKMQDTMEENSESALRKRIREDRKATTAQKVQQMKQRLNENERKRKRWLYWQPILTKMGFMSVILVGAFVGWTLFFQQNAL
The description is as above. The following applies: for IC50: pNPP 2 mM, pH 7.0, 25° C., read-out: IC50, nM TC-PTP. Format: biochemical. Here is the method:
as §1

Test [3] deals with T1, PTP1B. The test can be described thus: Degradation assay in HEK293 cells (immunoblotting). Format: cell-based. More on the design: Degradation assay was conducted in HEK293 cells with 1 μM degrader and 24 hours incubation; endogenous in cells; host or cells: HEK293. The following applies: 1 μM degrader, 24 hours. The method, then:
(§2) HEK293. MIAPaCa-2, HepG2, U2OS, H116, MEF, B16F10, and MC38 cells, were grown in DMEM, while Jurkat and H358 cells were grown in RPMI 1640 supplemented with 10% fetal bovine serum, penicillin (50 units/mL), and streptomycin (50 μg/mL) in a 37° C. incubator containing 5% CO2. 20 ng/ml human (Biolegend #713906) or mouse (Biolegend #714006) Interferon-γ were used for JAK/STAT pathway stimulation.
(§3) Tissues or cultured cells were lysed with ice-cold lysis buffer (50 mM Tris (pH 8.0, 150 mM NaCl, 10% Glycerol, 1% Triton-X-100) supplied with phosphatase inhibitor (Bimake) and protease inhibitor mixture (Roche Applied Science). Equal amounts of protein were resolved by SDS-PAGE, transferred to nitrocellulose membrane, and subjected to immunoblotting. Antibodies used in this study include anti-following proteins: pSTAT1^Tyr701 (Cell Signaling Technology #9167, 1:3000), GAPDH (Cell Signaling Technology #97166, 1:5000), pJAK1^Tyr1034/1035 (Cell Signaling Technology #74129, 1:1000), pJAK2^Tyr1007/1008 (Cell Signaling Technology #3776, 1:1000), TC-PTP (Abcam #ab180764, 1:3000). PTP1B (Abcam #ab244207, 1:1500).
(§4) Degradation assay was conducted in HEK293 cells with 1 μM degrader and 24 hours incubation.
(§5) The degradation assay was conducted in HEK293 cells with 0.2 μM degrader and 16 hours incubation.
A general note: Immunoblotting shows a protein as a band on a membrane.

Test [4] addresses T2, TC-PTP. Kind of test: Degradation assay in HEK293 cells (immunoblotting). It is filed as cell-based. More on the design: Degradation assay was conducted in HEK293 cells with 1 μM degrader and 24 hours incubation; endogenous in cells; host or cells: HEK293. The following applies: 1 μM degrader, 24 hours, read-out: % Protein Degradation TC-PTP. Here is the method: as §2, §3, §4, §5

For test [5], the target named is T1, PTP1B. The test can be described thus: Degradation assay in HEK293 cells (immunoblotting). It is filed as cell-based. More on the design: endogenous in cells; host or cells: HEK293. The following applies: 0.2 μM degrader, 16 hours. Here is the method:
as §2, §3, §4, §5

Test [6] has as its target T2, TC-PTP. The test can be described thus: Degradation assay in HEK293 cells (immunoblotting). Format: cell-based. More on the design: endogenous in cells; host or cells: HEK293. The settings on record: 0.2 μM degrader, 16 hours, read-out: % Protein Degradation TC-PTP. The method, then:
as §2, §3, §4, §5

Usually IC50 stands for the point on the concentration scale where inhibition reaches its midpoint. With `COc1cc(CC(=O)N[C@@H](Cc2ccccc2)C(=O)N[C@@H](Cc2ccc(C(F)(F)P(=O)(O)O)cc2)C(=O)N[C@@H](CCCCNC(=O)c2ccc(C)c(Br)c2)C(=O)NCCCCC(=O)N[C@@H](C(=O)N2C[C@@H](O)C[C@@H]2C(=O)NCc2ccc(-c3scnc3C)cc2)C(C)(C)C)ccc1O` [Compound 6, ((4-((S)-3-(((S)-6-(3-bromo-4-methylbenzamido)-1-((5-(((R)-1-((2R,4S)-4-hydroxy-2-((4-(4-methylthiazol-5-yl)benzyl)carbamoyl)pyrrolidin-1-yl)-3,3-dimethyl-1-oxobutan-2-yl)amino)-5-oxopentyl)amino)-1-oxohexan-2-yl)amino)-2-((S)-2-(2-(4-hydroxy-3-methoxyphenyl)acetamido)-3-phenylpropanamido)-3-oxopropyl)phenyl)difluoromethyl)phosphonic Acid] ({Phenylacetyl(4-OH,3-OMe)}-F[F2Pmp]K(Benzoyl(3-Br,4-Me))[Ava][dTle][dHyp]-{NHBn(4-(4-Me-thiazol-5-yl))}), the IC50 at PTP1B [1] came to 29.4 ± 2.1 nM; on TC-PTP [2], 34.3 ± 14.8 nM. The “% Protein Degradation PTP1B” value on PTP1B [3] amounted to 53%. In addition, the percent TC-PTP degradation at 1 µM on TC-PTP [4] came out at 58%.
With `COc1cc(CC(=O)N[C@@H](Cc2ccccc2)C(=O)N[C@@H](Cc2ccc(C(F)(F)P(=O)(O)O)cc2)C(=O)N[C@@H](CCCCNC(=O)c2ccc(C)c(Br)c2)C(=O)N2CCC(CCC(=O)N[C@H](C(=O)N3C[C@H](O)C[C@H]3C(=O)NCc3ccc(-c4scnc4C)cc3)C(C)(C)C)CC2)ccc1O` [Compound 58, ((4-((S)-3-(((S)-6-(3-bromo-4-methylbenzamido)-1-(4-(3-(((S)-1-((2S,4R)-4-hydroxy-2-((4-(4-methylthiazol-5-yl)benzyl)carbamoyl)pyrrolidin-1-yl)-3,3-dimethyl-1-oxobutan-2-yl)amino)-3-oxopropyl)piperidin-1-yl)-1-oxohexan-2-yl)amino)-2-((S)-2-(2-(4-hydroxy-3-methoxyphenyl)acetamido)-3-phenylpropanamido)-3-oxopropyl)phenyl)difluoromethyl)phosphonic Acid] ({Phenylacetyl(4-OH,3-OMe)}-F[F2Pmp]K(Benzoyl(3-Br,4-Me))[X3][Tle][Hyp]-{NHBn(4-(4-Me-thiazol-5-yl))}), the IC50 at PTP1B [1] is 8.9 ± 0.5 nM; at TC-PTP [2], 8 ± 0.7 nM. In addition, the “% Protein Degradation PTP1B” value at PTP1B [5] came out at 26%. Moreover, the percent TC-PTP degradation at 0.2 µM at TC-PTP [6] stood at 32%.
One may read the Ki as a measure of affinity in units of concentration, obtained from inhibition or displacement. Low values mean tighter binding, high ones weaker binding. `COc1cc(CC(=O)N[C@@H](Cc2ccccc2)C(=O)N[C@@H](Cc2ccc(C(F)(F)P(=O)(O)O)cc2)C(=O)N[C@@H](CCCCNC(=O)c2ccc(C)c(Br)c2)C(N)=O)ccc1O` [Example 7, ((4-((S)-3-(((S)-1-amino-6-(3-bromo-4-methylbenzamido)-1-oxohexan-2-yl)amino)-2-((S)-2-(2-(4-hydroxy-3-methoxyphenyl)acetamido)-3-phenylpropanamido)-3-oxopropyl)phenyl)difluoromethyl)phosphonic Acid]: the Ki amounted to 2.4 nM on PTP1B [1] (PTP1B-catalyzed pNPP hydrolysis) and 3.6 nM on TC-PTP [2] (TC-PTP catalyzed pNPP hydrolysis). For the same compound, the IC50 at PTP1B [1] came out at 4.7 ± 0.3 nM; at TC-PTP [2] it was 7.1 ± 0.4 nM. Further, the percent TC-PTP degradation at 0.2 µM at TC-PTP [6] is 0%. Also, at TC-PTP [4], the percent TC-PTP degradation at 1 µM was 0%.
